US7470669B2, “Isolated polypeptide comprising a leptin fragment” (Serono Genetics Institute, S.A., priority 1999, dated 2008)

Key:
rat LSR = assay: Ligand blot of 125I-leptin on partially purified rat LSR; type: binding; settings: 200 ng/mL 125I-leptin
Method: Aliquots (72 μg) of partially purified rat liver LSR were separated on a 4%-12% SDS-gradient polyacrylamide gel, and transferred to nitrocellulose as described previously (Yen F. T., Masson M., Clossais-Besnard N., Andre P., Grosset J. M., Bougueleret L., Dumas J. B., Guerassimenko, O., and Bihain B. E. (1999). J Biol Chem 274, 13390-13398) a gel strip stained with Coomassie blue is shown in lane 1. The nitrocellulose strips were washed, blocked, and incubated with anti-rat LSR protein antiserum (1:1000 dilution) (lane 2), or with 200 ng/mL ^125I-leptin (lane 3). The strips were washed and bands were detected as described herein. Image analysis of lane 3 was performed on a Phosphorimager (Molecular Dynamics).
Partially purified rat LSR (240 kDa band complex) was obtained as described previously (Yen F. T., Masson M., Clossais-Besnard N., Andre P., Grosset J. M., Bougueleret L., […] Dumas J. B., Guerassimenko, O., and Bihain B. E. (1999). J Biol Chem 274, 13390-13398.) The band was separated on non-denaturing 4-12% gradient SDS polyacrylamide gel, and was transferred to nitrocellulose by semi-dry transfer (Biorad, 18 V, […]). […]

db^Pas/db^Pas mice = assay: Postprandial plasma TG response after high-fat test meal in db^Pas/db^Pas mice; type: in vivo, mouse
Method: (§1) FIGS. 1A and 1B show the effect of leptin on postprandial plasma TG response in db/db and db^Pas/db^Pas mice. Overnight-fasted db/db (A), db^Pas/db^Pas (B) mice were gavage-fed a high-fat test meal and immediately injected intravenously (db/db) or intraperitoneally (db^Pas/db^Pas) with saline (open symbols) or 50 μg mouse recombinant leptin (closed symbols). At the indicated times, blood was collected from the tail (A) or orbital (B) vein, plasma was separated by centrifugation, and plasma TG concentrations were determined using an enzymatic kit. Each point represents the mean±SEM (db/db: saline, n=4, leptin, n=3; db^Pas/db^Pas: saline, n=6, leptin, n=7). The average plasma lipid response in 10 control C57BL6 mice is shown as a dotted line in both A and B. In a separate experiment, shown as an inset for each strain of mice, overnight fasted db/db (●) or db^Pas/db^Pas (▪) mice were gavage-fed the test meal and immediately injected intravenously with increasing concentrations of leptin. The plasma lipid response was then measured as in A and B. The area under the response curve (AUC) was then calculated using a triangulation method on Microsoft Excel between 0 and 4 hr (mg TG·h/mL). Values are presented as % of control value (test meal alone obtained in A or B). Each point represents the mean of at least 3 mice.
FIGS. 7A and 7B show a comparison of the effect of human and mouse leptin on LSR activity in rat hepatocytes and on postprandial increase in plasma TG in db^Pas/db^Pas mice. For FIG. 7A, primary cultures of rat hepatocytes were incubated 30 min at 37° C. without (open bar) or with 10 ng/mL recombinant human (solid bar) or mouse (hatched bar) leptin in Buffer A. Oleate (0.5 mM) and ^125I-LDL (20 μg/mL) were added and the cells were incubated 2 h at 37° C. The media were removed and were analyzed for TCA-soluble degradation products. The mean of duplicate determinations is shown. For FIG. 7B, db^Pas/db^Pas mice were given a test meal as previously described, followed immediately by injection i.p. of saline (open bar, n=4), human leptin (1 μg/animal; solid bar, n=3) or mouse leptin (0.25 μg/animal; hatched bar; n=3). The data represent the difference in TG concentrations measured at t=0 and the average of the concentrations at 3 and 4 hours. Results are shown as mean±SEM.
(§2) Mice that were fasted for 2-3 hours were gavage-fed 300 μL of a test meal consisting of 60% fat (37% saturated, 27% mono-, and 36% polyunsaturated fatty acids), 20% protein and 20% carbohydrate, and providing 56 kcal of energy/kg (1.5 g butter, 1.5 g sunflower oil, 2.5 g nonfat dry milk, 2.5 g sucrose and 3 ml water). […] TG concentrations were determined using a commercially available enzymatic kit with controls included in each assay (Precinorm L, Roche-Boehringer Mannheim; Lyotrol N, BioMérieux).

db/db mice = assay: Postprandial plasma TG response after high-fat test meal in db/db mice; type: in vivo, mouse
Method: as §1
as §2, with “water). Immediately after the meal, the animals were injected intravenously (db/db) or intraperitoneally (db^Pas/db^Pas) with either 200 μL physiological saline or 200 μL of the same solution containing recombinant mouse leptin.” for “water).”, “BioMérieux). […]” for “BioMérieux).”

[1] = 250 ng leptin per animal, AUC 0-4 h
[2] = 500 ng leptin per animal (maximum effect)

leptin: plasma protein of 16 kDa produced by adipocytes; recombinant human or mouse leptin, species depends on the experiment
binding of 125I-leptin to partially purified rat LSR multimeric complexes (rat LSR): bound | area under the TG curve (db^Pas/db^Pas mice; [1]): significant reduction | decrease of the area under the postprandial TG curve (db^Pas/db^Pas mice; [2]): > 65% | amplitude of the triglyceride response (db^Pas/db^Pas mice; single bolus 50 μg mouse recombinant leptin i.p. at time of test meal): decreased the amplitude of the triglyceride response | area under the TG curve (db/db mice; [1]): significant reduction | decrease of the area under the postprandial TG curve (db/db mice; [2]): > 80% | amplitude of the triglyceride response (db/db mice; single bolus 50 μg mouse recombinant leptin i.v. at time of test meal): decreased the amplitude of the triglyceride response
